For assay [1], the target named is T1, GST tagged LXRbeta LBD (ligand binding domain) (Homo sapiens, UniProt P55055).
T1 construct: purchased Invitrogen pv4658.pps
T1 sequence (P55055 222-460 limits assumed): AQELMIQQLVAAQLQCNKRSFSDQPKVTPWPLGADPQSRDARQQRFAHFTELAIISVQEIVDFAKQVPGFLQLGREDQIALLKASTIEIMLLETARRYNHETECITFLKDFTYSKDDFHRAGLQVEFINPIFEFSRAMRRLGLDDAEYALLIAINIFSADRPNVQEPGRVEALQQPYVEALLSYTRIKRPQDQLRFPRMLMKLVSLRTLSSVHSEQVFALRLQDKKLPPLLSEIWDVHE
Briefly: LanthaScreen TR-FRET Liver X Receptor Coactivator Assay, LXR beta-LBD. The assay is classed as biochemical. As to conditions: relative to reference T0901317; for EC50: Inflection Point (potency), co-activator recruitment, read-out: LXR beta IP; for Emax: activity at max dose (efficacy), read-out: LXR beta act @ max dose (%). In short, it runs like this: (§1)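 Coactivator-recruitment TR-FRET format: GST-LBD, fluorescein-labelled coactivator peptide, Tb-conjugated anti-GST antibody, incubated at RT. Potency and efficacy scaled to T0901317.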

For assay [2], the target named is T2, GST tagged LXRalpha LBD (ligand binding domain) (Homo sapiens, UniProt Q13133).
T2 construct: purchased Invitrogen pv4655
T2 sequence (Q13133 209-447 limits assumed): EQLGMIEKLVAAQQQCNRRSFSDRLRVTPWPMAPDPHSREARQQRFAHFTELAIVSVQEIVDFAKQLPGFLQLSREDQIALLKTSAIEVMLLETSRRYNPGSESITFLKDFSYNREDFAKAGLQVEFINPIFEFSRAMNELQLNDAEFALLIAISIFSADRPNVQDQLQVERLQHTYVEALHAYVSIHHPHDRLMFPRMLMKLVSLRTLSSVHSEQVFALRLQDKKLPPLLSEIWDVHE
Put plainly: LanthaScreen TR-FRET Liver X Receptor Coactivator Assay, LXR alpha-LBD. Type of assay: biochemical. As to conditions: relative to reference T0901317; for EC50: Inflection Point (potency), co-activator recruitment, read-out: LXR alpha IP; for Emax: activity at max dose (efficacy), read-out: LXR alpha act @ max dose (%). An outline of the steps: as §1
Background: TR-FRET usually uses a lanthanide donor and a delayed reading to cut background.

Consider `CC(C)S(=O)(=O)c1ccc(N2CCC(C3CCN(C(=O)[C@](O)(c4ccccc4)C(F)(F)F)CC3)CC2)cc1Cl` [Example D-5, (2R)-3-(1′-{3-chloro-4-[(1-methylethyl)sulfonyl]phenyl}-4,4′-bipiperidin-1-yl)-1,1,1-trifluoro-3-oxo-2-phenylpropan-2-ol], for which, in assay [1], the EC50 was determined as 418 nM and the Emax is 86%. Besides, in assay [2], the EC50 worked out at 1520 nM and the Emax turned out to be 28%.

`CS(=O)(=O)c1ccc(N2CCC(C3CCN(C(=O)c4c(F)cccc4F)CC3)CC2)cc1Cl` [Example D-6, 1-[3-chloro-4-(methylsulfonyl)phenyl]-1′-[(2,6-difluorophenyl)carbonyl]-4,4′-bipiperidine]: in assay [1], the EC50 was determined as 380 nM and the Emax was determined as 49%. In assay [2], the EC50 is 772 nM and the Emax came to 18%.

On to `CS(=O)(=O)c1ccc(N2CCC(C3CCN(C(=O)[C@](O)(c4ccccc4)C(F)(F)F)CC3)CC2)cc1Cl` [Example D-7, (2R)-3-{1′-[3-chloro-4-(methylsulfonyl)phenyl]-4,4′-bipiperidin-1-yl}-1,1,1-trifluoro-3-oxo-2-phenylpropan-2-ol], for which, in assay [1], the EC50 was 180 nM and the Emax was 82%. In addition, in assay [2], the EC50 came to 413 nM and the Emax worked out at 20%.

As to `CC(C)(C(=O)N1CCC(C2CCN(c3cccc(S(C)(=O)=O)c3)CC2)CC1)c1ccccc1` [Example D-8, 1-(2-methyl-2-phenylpropanoyl)-1′-[3-(methylsulfonyl)phenyl]-4,4′-bipiperidine], in assay [1], the EC50 was 185 nM and the Emax was found to be 134%. In addition, in assay [2], the EC50 was found to be 2490 nM and the Emax was 64%.

As to `CC(C)(C)OC(=O)N1CCC(C2CCN(c3ccc(S(C)(=O)=O)c(Cl)c3)CC2)CC1` [Example D-9, tert-butyl 1′-[3-chloro-4-(methylsulfonyl)phenyl]-4,4′-bipiperidine-1-carboxylate], the EC50 in assay [1] is 124 nM; in assay [2] it was 822 nM. Also, the Emax in assay [1] was found to be 81%; in assay [2], 41%.

In the case of `COC(=O)c1ccc(N2CCC(C3CCN(C(=O)OC(C)(C)C)CC3)CC2)nc1Cl` [Example E-1, tert-butyl 1′-[6-chloro-5-(methoxycarbonyl)pyridin-2-yl]-4,4′-bipiperidine-1-carboxylate], in assay [1], the EC50 amounted to 237 nM and the Emax was found to be 36%. In assay [2], the EC50 came out at 857 nM and the Emax came to 29%.

On to `COC(=O)c1ccc(N2CCC(C3CCN(C(=O)c4c(F)cccc4F)CC3)CC2)cc1Cl` [Example E-2, methyl 2-chloro-4-{1′-[(2,6-difluorophenyl)carbonyl]-4,4′-bipiperidin-1-yl}benzoate], for which, in assay [1], the EC50 was 153 nM and the Emax is 25%. Moreover, in assay [2], the EC50 was 58 nM and the Emax was determined as 26%.

Regarding `CC(C)C(O)(C(=O)N1CCC(C2CCN(c3ccc(C(=O)N4CC(F)(F)C4)c(Cl)c3)CC2)CC1)C(F)(F)F` (centres unmarked) [Example E-3, 2-[(1′-{3-chloro-4-[(3,3-difluoroazetidin-1-yl)carbonyl]phenyl}-4,4′-bipiperidin-1-yl)carbonyl]-1,1,1-trifluoro-3-methylbutan-2-ol], in assay [1], the EC50 stood at 297 nM and the Emax is 81%. Besides, in assay [2], the EC50 amounted to 127 nM and the Emax was found to be 30%.

As to `CC(C)C(O)(C(=O)N1CCC(C2CCN(c3ccc(C(N)=O)c(Cl)c3)CC2)CC1)C(F)(F)F` (centres unmarked) [Example E-4, 2-chloro-4-{1′-[2-hydroxy-3-methyl-2-(trifluoromethyl)butanoyl]-4,4′-bipiperidin-1-yl}benzamide], in assay [1], the EC50 was determined as 51 nM and the Emax amounted to 94%. For the same compound, in assay [2], the EC50 was 180 nM and the Emax amounted to 67%.

As for `CNC(=O)c1ccc(N2CCC(C3CCN(C(=O)C(O)(C(C)C)C(F)(F)F)CC3)CC2)cc1Cl` (centres unmarked) [Example E-5, 2-chloro-4-{1′-[2-hydroxy-3-methyl-2-(trifluoromethyl)butanoyl]-4,4′-bipiperidin-1-yl}-N-methylbenzamide], in assay [1], the EC50 was found to be 111 nM and the Emax was determined as 123%. In assay [2], the EC50 turned out to be 1070 nM and the Emax is 56%.

`CC(C)N(C)C(=O)c1ccc(N2CCC(C3CCN(C(=O)C(O)(C(C)C)C(F)(F)F)CC3)CC2)cc1Cl` (centres unmarked) [Example E-6, 2-chloro-4-{1′-[2-hydroxy-3-methyl-2-(trifluoromethyl)butanoyl]-4,4′-bipiperidin-1-yl}-N-methyl-N-(1-methylethyl)benzamide]: the values for the EC50 in assay [1] and in assay [2] were 111 nM and 761 nM, respectively. In addition, the Emax was found to be 101% in assay [1] and 53% in assay [2].

On to `CC(C)C(O)(C(=O)N1CCC(C2CCN(c3ccc(C(=O)N4CCCC4)c(Cl)c3)CC2)CC1)C(F)(F)F` (centres unmarked) [Example E-7, 2-({1′-[3-chloro-4-(pyrrolidin-1-ylcarbonyl)phenyl]-4,4′-bipiperidin-1-yl}carbonyl)-1,1,1-trifluoro-3-methylbutan-2-ol], for which the values for the EC50 in assay [1] and in assay [2] were 108 nM and 1920 nM, respectively. Further, the Emax in assay [1] was 74%; in assay [2] it was 32%.

Turning to `CC(C)C(O)(C(=O)N1CCC(C2CCN(c3ccc(C(=O)N4CCOCC4)c(Cl)c3)CC2)CC1)C(F)(F)F` (centres unmarked) [Example E-8, 2-({1′-[3-chloro-4-(morpholin-4-ylcarbonyl)phenyl]-4,4′-bipiperidin-1-yl}carbonyl)-1,1,1-trifluoro-3-methylbutan-2-ol], the EC50 worked out at 149 nM in assay [1] and 1190 nM in assay [2]. Also, the results for the Emax in assay [1] and in assay [2] were 65% and 29%, respectively.

Take `CCN(CC)C(=O)c1ccc(N2CCC(C3CCN(C(=O)C(O)(C(C)C)C(F)(F)F)CC3)CC2)cc1Cl` (centres unmarked) [Example E-9, 2-chloro-N,N-diethyl-4-{1′-[2-hydroxy-3-methyl-2-(trifluoromethyl)butanoyl]-4,4′-bipiperidin-1-yl}benzamide]: in assay [1], the EC50 is 30 nM and the Emax is 96%. Further, in assay [2], the EC50 came out at 114 nM and the Emax amounted to 49%.

Turning to `CC(C)C(O)(C(=O)N1CCC(C2CCN(c3ccc(C(=O)N4CCOC[C@H]4C)c(Cl)c3)CC2)CC1)C(F)(F)F` (stereo partly drawn) [Example E-10, 2-{[1′-(3-chloro-4-{[(3R)-3-methylmorpholin-4-yl]carbonyl}phenyl)-4,4′-bipiperidin-1-yl]carbonyl}-1,1,1-trifluoro-3-methylbutan-2-ol], in assay [1], the EC50 was 219 nM and the Emax came out at 72%. Further, in assay [2], the EC50 worked out at 1260 nM and the Emax was 32%.

As for `CC(C)N(C(=O)c1ccc(N2CCC(C3CCN(C(=O)C(O)(C(C)C)C(F)(F)F)CC3)CC2)cc1Cl)C(C)C` (centres unmarked) [Example E-11, 2-chloro-4-{1′-[2-hydroxy-3-methyl-2-(trifluoromethyl)butanoyl]-4,4′-bipiperidin-1-yl}-N,N-bis(1-methylethyl)benzamide], in assay [1], the EC50 was found to be 156 nM and the Emax was determined as 33%. In addition, in assay [2], the EC50 came to 1070 nM and the Emax was found to be 1%.

Consider `O=C(c1c(F)cccc1F)N1CCC(C2CCN(c3ccc(C(=O)N4CCCC4CO)c(Cl)c3)CC2)CC1` (centres unmarked) [Example E-12, {1-[(2-chloro-4-{1′-[(2,6-difluorophenyl)carbonyl]-4,4′-bipiperidin-1-yl}phenyl)carbonyl]pyrrolidin-2-yl}methanol], for which, in assay [1], the EC50 is 128 nM and the Emax amounted to 84%. Besides, in assay [2], the EC50 turned out to be 1220 nM and the Emax came out at 58%.

The record behind these values is patent US20180305332A1, “Bispiperidinyl Derivatives as Liver X Receptor Beta Agonists, Compositions, and Their Use” (Merck Sharp & Dohme Corp., priority 2015, published 2018).
